Reference: PMC9853328, “Potent Platinum(IV) Prodrugs That Incorporate a Biotin Moiety to Selectively Target Cancer Cells” (Pharmaceutics, 2022)
“And” between values parts separate entries of the source, which are not always exact repeats. Equal entries are not always repeated.

Key:
Type in all cases: cell-based
HT29 colon cancer cells = assay: MTT in vitro cytotoxicity assay, HT29
Procedure, shortened: (§1)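 72 h continuous exposure, DMEM/10% FBS, 37 °C, 5% CO2; 2500–4000 cells/well, duplicates; dosed 24 h post-plating. MTT, A540. GI50 from 8-point curve, day-0 OD subtracted; mean ± SEM (n = 3).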

[1] = test system: A2780 ovarian cancer cells; assay: MTT in vitro cytotoxicity assay, A2780; settings: 72 h drug exposure, n = 3, read-out: GI50 ± SEM, A2780
Procedure, shortened: as §1

A431 skin cancer cells = assay: MTT in vitro cytotoxicity assay, A431; settings: 72 h drug exposure, n = 3, read-out: GI50 ± SEM, A431
Procedure, shortened: as §1

[2] = test system: MCF-7 breast cancer cells; assay: MTT in vitro cytotoxicity assay, MCF-7; settings: MTT, 72 h drug exposure, n = 3; read-out: GI50 ± SEM, MCF-7
[3] = test system: MIA pancreas cancer cells; assay: MTT in vitro cytotoxicity assay, MIA; settings: 72 h drug exposure, n = 3, read-out: GI50 ± SEM, MIA
Procedure, shortened: as §1

[4] = test system: panel of cancer cell lines; assay: MTT cytotoxicity averaged across the panel of cancer cell lines
[5] = test system: Du145 prostate cancer cells; assay: MTT in vitro cytotoxicity assay, Du145
Procedure, shortened: as §1

[6] = test system: non-cancerous MCF10A breast cell line; assay: MTT in vitro cytotoxicity assay, MCF10A; settings: 72 h drug exposure, n = 3, read-out: GI50 ± SEM, MCF10A
Procedure, shortened: as §1

[7] = test system: ADDP (subclone of A2780) versus A2780 ovarian cancer cell lines; assay: Resistance factor, GI50 in ADDP/GI50 in A2780
[8] = test system: MCF10A (healthy breast) cells; assay: Cellular platinum uptake by ICP-MS, MCF10A; settings: 1.0 and 0.1 µM, 4 h, among complexes 1–4
Protocol: (§2) Cellular uptake studies were carried out in MCF-7 (breast cancer) and MCF10A (healthy breast) cell lines. Reported in Table S2 are the numbers of cells per well that were seeded onto 12-well plates for each replicate and cell line. After incubating overnight at 37 °C, the cell culture medium was replaced with fresh media containing the test compounds at concentrations of 1.0 and 0.1 µM. After incubating for 4 h, the medium was removed, the cells were washed with PBS twice, and then incubated with trypsin solution until the cells dissociated from the plate. The harvested cells were then placed into an Eppendorf tube and PBS was added to a volume of 1 mL. Cell numbers were determined using trypan blue staining. Cell pellets were obtained after centrifugation and the cells were dispersed in 50 µL of MilliQ™ water and stored immediately at −20 °C until platinum analysis was conducted. These experiments were repeated in triplicate on three separate occasions.
Sixty-nine percent HNO3 (50 µL) was added to each sample and digested at 80 °C for 1.5 h, before being taken up to 1 mL with H2O. The platinum analysis was conducted using a PerkinElmer (Melbourne, Australia) NexION™ 300X inductively coupled plasma mass spectrometer (ICP-MS). […] The calibration was linear over the working range (R^2 > 0.9999) and the most abundant platinum isotope (m/z = 195) was monitored. […]

[9] = test system: MCF-7 (breast cancer) cells; assay: Cellular platinum uptake by ICP-MS, MCF-7; settings: 0.1 µM, 4 h, ICP-MS
Protocol: as §2
Sixty-nine percent HNO3 (50 µL) was added to each sample and digested at 80 °C for 1.5 h, before being taken up to 1 mL with H2O. The platinum analysis was conducted using a PerkinElmer (Melbourne, Australia) NexION™ 300X inductively coupled plasma mass spectrometer (ICP-MS). A four-point calibration curve was produced by serial dilution of a certified platinum reference standard. The calibration was linear over the working range (R^2 > 0.9999) and the most abundant platinum isotope (m/z = 195) was monitored. The average values for three independent experiments were reported with standard deviations.

Question: Which results are given for `COc1cc[n+]2c3c1ccc1c(OC)cc[n+](c13)[Pt-2]21([OH])([O]C(=O)CCCC[C@@H]2SC[C@@H]3NC(=O)N[C@@H]32)[NH2+][C@H]2CCCC[C@@H]2[NH2+]1.O=[N+]([O-])[O-].O=[N+]([O-])[O-]` [Complex 3, [Pt(4,7-dimethoxy-1,10-phenanthroline)(1S,2S-diaminocyclohexane)(biotin)(hydroxido)](NO3)2]?
Answer: GI50 (HT29 colon cancer cells; MTT, 72 h drug exposure, n = 3, read-out: GI50 ± SEM, HT29): 130 ± 50 nM; number-fold potency against cisplatin, HT29 colon (HT29 colon cancer cells; ratio of GI50 values, 72 h): 87 fold; GI50 [1]: 370 ± 30 nM; GI50 (A431 skin cancer cells): 820 ± 220 nM; GI50 [2]: 99 ± 41 nM; GI50 [3]: 180 ± 10 nM; enhanced activity compared to platinum(II) precursor across the cancer cell lines ([4]; across all cancer cell lines): ~ 1.3 fold; fold more active than cisplatin, on average, against all cancer cells ([4]; average over cancer cell lines): 8 fold; GI50 ([4]; calculated from the panel of cancer cell lines tested (Table S4)): 459 nM; GI50 ([5]; MTT, 72 h drug exposure, n = 3, read-out: GI50 ± SEM, Du145): 120 ± 40 nM; number-fold potency against cisplatin, Du145 prostate ([5]; ratio of GI50 values, 72 h): 10 fold; GI50 [6]: 300 ± 80 nM; Resistance factor (RF) [7]: 0.459 and 0.46; cellular platinum uptake in MCF10A (rank) [8]: lowest uptake levels; cellular platinum uptake in MCF-7 [9]: greatest uptake; fold greater uptake in MCF-7 compared to MCF10A [9]: ~3 fold
